Consider 15 molecules from patent US12643903B2, “Bifunctional compounds for degradation of EGFR and related methods of use” (BeiGene, Ltd., priority 2020, dated 2026).

One may read the DC50 as the midpoint of the concentration-degradation curve. Read a high DC50 as a less potent degrader.

In assay [1] the target is T1, EGFR (Homo sapiens, UniProt P00533, L858R/T790M).
T1 construct: endogenous in cells; host or cells: H1975
In words: Cell Degradation 1: EGFR degradation in H1975 cells, HTRF assay. The assay is classed as cell-based. Particulars: 16 h treatment, EGFR degradation by HTRF. The protocol: After 16 h treatment, add 100 μl 1×lysis buffer to each well; seal the plate and incubate 1 hour at room temperature on a plate shaker; Once the cells are lysed, 16 μL of cell lysate are transferred to a PE 384-well HTRF detection plate; 4 μL of pre-mixed HTRF antibodies are added to each well; Cover the plate with a plate sealer, spin 1000 rpm for 1 min, Incubate overnight at room temperature; Read on BMG PheraStar with HTRF protocol (337 nm-665 nm-620 nm).
(§1) The IC50 (DC50) value of a compound can be obtained by fitting the following equation Y=Bottom+(TOP−Bottom)/(1+((IC50/X)^hillslope))
(§2) Wherein, X and Y are known values, and IC50, Hillslope, Top and Bottom are the parameters obtained by fitting with software. Y is the inhibition percentage (calculated from the equation), X is the concentration of the compound; IC50 is the concentration of the compound when the 50% inhibition is reached. The smaller the IC50 value is, the stronger the inhibitory ability of the compound is. Vice versa, the higher the IC50 value is, the weaker the ability the inhibitory ability of the compound is; Hillslope represents the slope of the fitted curve, generally around 1*; Bottom represents the minimum value of the curve obtained by data fitting, which is generally 0%±20%; Top represents the maximum value of the curve obtained by data fitting, which is generally 100%±20%. The experimental data were fitted by calculating and analyzing with Dotmatics data analysis software.
A general note: TR-FRET usually uses a lanthanide donor and a delayed reading to cut background.

The target of assay [2] is T2, EGFR (Homo sapiens, UniProt P00533, DEL746-750).
T2 construct: endogenous in cells; host or cells: HCC827
Description: Cell Degradation 2: EGFR degradation in HCC827 cells, HTRF assay. The settings on record: 16 h treatment, EGFR degradation by HTRF. The assay is classed as cell-based. The protocol:
After 16 h treatment, add 100 μl 1×lysis buffer to each well; seal the plate and incubate 1 hour at room temperature on a plate shaker; Once the cells are lysed, 16 μl diluted (2 μL to 14 μl 1× lysisi buffer) cell lysate are transferred to a PE 384-well HTRF detection plate; 4 μL of pre-mixed HTRF antibodies are added to each well; Cover the plate with a plate sealer, spin 1000 rpm for 1 min, Incubate overnight at room temperature; Read on BMG PheraStar with HTRF protocol (337 nm-665 nm-620 nm).
as §1, §2

Molecules are shown by their SMILES.

T1 sequence (P00533 25-1210 T790M/L858R): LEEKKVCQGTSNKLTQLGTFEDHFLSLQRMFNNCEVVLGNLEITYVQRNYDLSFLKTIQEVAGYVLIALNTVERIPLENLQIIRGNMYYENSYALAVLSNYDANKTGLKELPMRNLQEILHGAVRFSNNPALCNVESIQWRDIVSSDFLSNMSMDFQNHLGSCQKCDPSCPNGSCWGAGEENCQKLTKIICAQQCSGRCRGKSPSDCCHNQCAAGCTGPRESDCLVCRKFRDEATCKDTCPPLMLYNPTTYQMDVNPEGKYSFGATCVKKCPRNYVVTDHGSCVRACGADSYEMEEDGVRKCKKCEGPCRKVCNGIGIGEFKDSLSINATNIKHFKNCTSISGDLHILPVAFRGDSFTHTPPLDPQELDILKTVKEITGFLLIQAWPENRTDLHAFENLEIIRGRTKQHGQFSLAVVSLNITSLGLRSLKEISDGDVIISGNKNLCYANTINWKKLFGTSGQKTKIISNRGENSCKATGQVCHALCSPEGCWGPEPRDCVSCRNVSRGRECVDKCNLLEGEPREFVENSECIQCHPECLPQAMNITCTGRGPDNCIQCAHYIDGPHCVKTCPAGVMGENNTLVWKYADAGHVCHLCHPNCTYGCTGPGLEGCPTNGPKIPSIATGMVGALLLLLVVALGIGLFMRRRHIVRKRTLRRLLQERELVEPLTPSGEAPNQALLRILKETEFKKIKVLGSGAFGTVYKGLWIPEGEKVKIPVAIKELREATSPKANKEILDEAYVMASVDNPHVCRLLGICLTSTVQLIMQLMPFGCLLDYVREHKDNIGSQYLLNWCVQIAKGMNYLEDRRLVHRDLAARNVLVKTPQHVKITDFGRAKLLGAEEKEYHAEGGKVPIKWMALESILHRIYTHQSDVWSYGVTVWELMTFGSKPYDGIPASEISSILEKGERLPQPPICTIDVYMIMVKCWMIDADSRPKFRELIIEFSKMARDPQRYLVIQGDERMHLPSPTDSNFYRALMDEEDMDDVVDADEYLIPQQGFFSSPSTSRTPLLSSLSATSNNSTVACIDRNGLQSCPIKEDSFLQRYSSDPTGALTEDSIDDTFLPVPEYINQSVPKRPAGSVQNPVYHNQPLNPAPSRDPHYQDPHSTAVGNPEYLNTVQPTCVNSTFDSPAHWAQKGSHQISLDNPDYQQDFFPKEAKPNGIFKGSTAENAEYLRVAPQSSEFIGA
T2 sequence (P00533 with tags, fused parts or gaps DEL746-750): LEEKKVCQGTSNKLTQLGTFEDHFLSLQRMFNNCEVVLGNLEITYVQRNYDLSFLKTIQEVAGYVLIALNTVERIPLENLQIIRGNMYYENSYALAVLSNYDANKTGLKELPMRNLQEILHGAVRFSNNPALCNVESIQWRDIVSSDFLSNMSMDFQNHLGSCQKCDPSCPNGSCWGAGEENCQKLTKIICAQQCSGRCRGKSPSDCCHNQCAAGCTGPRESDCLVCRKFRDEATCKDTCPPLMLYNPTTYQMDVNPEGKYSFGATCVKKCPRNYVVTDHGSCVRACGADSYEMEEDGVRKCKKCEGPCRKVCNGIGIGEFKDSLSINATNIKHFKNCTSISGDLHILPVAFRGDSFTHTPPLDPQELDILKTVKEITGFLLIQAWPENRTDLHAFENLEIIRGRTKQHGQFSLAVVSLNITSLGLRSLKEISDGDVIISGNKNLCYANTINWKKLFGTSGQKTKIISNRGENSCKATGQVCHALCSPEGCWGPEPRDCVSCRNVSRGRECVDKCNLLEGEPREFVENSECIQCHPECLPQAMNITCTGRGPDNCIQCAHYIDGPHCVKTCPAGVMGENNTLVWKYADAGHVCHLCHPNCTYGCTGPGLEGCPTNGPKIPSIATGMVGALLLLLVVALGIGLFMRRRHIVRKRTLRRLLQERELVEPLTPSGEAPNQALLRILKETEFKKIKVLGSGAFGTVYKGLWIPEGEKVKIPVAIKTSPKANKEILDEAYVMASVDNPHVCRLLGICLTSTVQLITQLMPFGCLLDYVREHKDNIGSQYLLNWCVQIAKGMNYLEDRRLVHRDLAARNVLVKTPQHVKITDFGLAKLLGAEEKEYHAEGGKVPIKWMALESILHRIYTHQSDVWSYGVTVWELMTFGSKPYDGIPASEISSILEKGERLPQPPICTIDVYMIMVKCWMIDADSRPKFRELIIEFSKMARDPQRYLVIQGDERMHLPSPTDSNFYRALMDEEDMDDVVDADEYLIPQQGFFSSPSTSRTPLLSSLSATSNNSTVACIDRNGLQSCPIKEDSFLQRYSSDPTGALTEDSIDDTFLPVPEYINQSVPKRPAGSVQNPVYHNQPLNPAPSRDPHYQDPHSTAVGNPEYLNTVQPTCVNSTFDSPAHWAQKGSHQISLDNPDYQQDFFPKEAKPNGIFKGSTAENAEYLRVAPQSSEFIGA
T2 sequence (Q96SW2 whole entry partner): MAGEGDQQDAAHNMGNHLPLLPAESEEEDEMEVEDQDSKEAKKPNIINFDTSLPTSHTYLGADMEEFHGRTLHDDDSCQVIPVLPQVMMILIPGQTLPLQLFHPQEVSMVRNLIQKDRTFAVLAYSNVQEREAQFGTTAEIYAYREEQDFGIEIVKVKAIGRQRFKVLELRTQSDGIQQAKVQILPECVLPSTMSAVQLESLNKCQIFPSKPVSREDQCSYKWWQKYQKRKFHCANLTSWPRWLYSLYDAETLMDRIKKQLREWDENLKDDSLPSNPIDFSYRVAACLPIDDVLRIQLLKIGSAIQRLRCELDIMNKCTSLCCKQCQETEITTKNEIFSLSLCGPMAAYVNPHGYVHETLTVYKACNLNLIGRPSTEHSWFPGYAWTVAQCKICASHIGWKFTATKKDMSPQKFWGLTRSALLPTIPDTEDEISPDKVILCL

For `COc1cc(N2CCC(N3CCN(CCc4ccc(C5CCC(=O)NC5=O)cc4)CC3)CC2)ccc1Nc1nc(Nc2cccc3c2N(S(C)(=O)=O)CC3)c2cc[nH]c2n1` (stereo not drawn) [Example 21, 3-(4-(2-(4-(1-(3-methoxy-4-((4-((1-(methylsulfonyl)indolin-7-yl)amino)-7H-pyrrolo[2,3-d]pyrimidin-2-yl)amino)phenyl)piperidin-4-yl)piperazin-1-yl)ethyl)phenyl)piperidine-2,6-dione], the values for the DC50 on EGFR [1] and on EGFR [2] were 38.4 nM and 113 nM, respectively.

`CS(=O)(=O)N1CCc2cccc(Nc3nc(Nc4ccc(N5CCN(CCC6CCN(c7ccc(C8CCC(=O)NC8=O)cc7)CC6)CC5)c(F)c4)nc4[nH]ccc34)c21` (stereo not drawn) [Example 27, 3-(4-(4-(2-(4-(2-fluoro-4-((4-((1-(methylsulfonyl)indolin-7-yl)amino)-7H-pyrrolo[2,3-d]pyrimidin-2-yl)amino)phenyl)piperazin-1-yl)ethyl)piperidin-1-yl)phenyl)piperidine-2,6-dione]: the figures for the 50% degradation concentration (DC50) on EGFR [1] and at EGFR [2] were 10.6 nM and 33.6 nM, respectively.

With `COc1cc(N2CCC(N3CCN(CC4CCN(c5ccc(C6CCC(=O)NC6=O)cc5)CC4)CC3)CC2)c(C)cc1Nc1ncc(Br)c(Nc2cccc3c2N(S(C)(=O)=O)CC3)n1` (stereo not drawn) [Example 40, 3-(4-(4-((4-(1-(4-((5-bromo-4-((1-(methylsulfonyl)indolin-7-yl)amino)pyrimidin-2-yl)amino)-5-methoxy-2-methylphenyl)piperidin-4-yl)piperazin-1-yl)methyl)piperidin-1-yl)phenyl)piperidine-2,6-dione], the DC50 came to 10.5 nM at EGFR [1] and 8.2 nM at EGFR [2].

With `COc1cc(N2CCC(N3CCN(CCC4CCN(c5ccc(C6CCC(=O)NC6=O)cc5)CC4)CC3)CC2)c(C)cc1Nc1ncc(Br)c(Nc2cccc3c2N(S(C)(=O)=O)CC3)n1` (stereo not drawn) [Example 41, 3-(4-(4-(2-(4-(1-(4-((5-bromo-4-((1-(methylsulfonyl)indolin-7-yl)amino)pyrimidin-2-yl)amino)-5-methoxy-2-methylphenyl)piperidin-4-yl)piperazin-1-yl)ethyl)piperidin-1-yl)phenyl)piperidine-2,6-dione], the DC50 on EGFR [1] was 20.7 nM; at EGFR [2], 16.7 nM.

As to `COc1cc(N2CCC(N3CCN(C(=O)CCN4CCN(c5ccc6c(c5)C(=O)N(C5CCC(=O)NC5=O)C6=O)CC4)CC3)CC2)c(C)cc1Nc1ncc(Br)c(Nc2cccc3c2N(S(C)(=O)=O)CC3)n1` (stereo not drawn) [Example 42, 5-(4-(3-(4-(1-(4-((5-bromo-4-((1-(methylsulfonyl)indolin-7-yl)amino)pyrimidin-2-yl)amino)-5-methoxy-2-methylphenyl)piperidin-4-yl)piperazin-1-yl)-3-oxopropyl)piperazin-1-yl)-2-(2,6-dioxopiperidin-3-yl)isoindoline-1,3-dione], the half-maximal degradation concentration (DC50) turned out to be 13.5 nM on EGFR [1] and 4.9 nM at EGFR [2].

Consider `COc1cc(N2CCC(N3CCN(C(=O)C4CCN(CC5CCN(c6ccc7c(c6)C(=O)N(C6CCC(=O)NC6=O)C7=O)CC5)CC4)CC3)CC2)c(C)cc1Nc1ncc(Br)c(Nc2cccc3c2N(S(C)(=O)=O)CC3)n1` (stereo not drawn) [Example 43, 5-(4-((4-(4-(1-(4-((5-bromo-4-((1-(methylsulfonyl)indolin-7-yl)amino)pyrimidin-2-yl)amino)-5-methoxy-2-methylphenyl)piperidin-4-yl)piperazine-1-carbonyl)piperidin-1-yl)methyl)piperidin-1-yl)-2-(2,6-dioxopiperidin-3-yl)isoindoline-1,3-dione], for which the DC50 is 49.1 nM at EGFR [1] and 11.1 nM on EGFR [2].

In the case of `COc1cc(N2CCC(N3CCN(CCCC4CN(c5ccc6c(c5)C(=O)N(C5CCC(=O)NC5=O)C6=O)C4)CC3)CC2)c(C)cc1Nc1ncc(Br)c(Nc2cccc3c2N(S(C)(=O)=O)CC3)n1` (stereo not drawn) [Example 44, 5-(3-(3-(4-(1-(4-((5-bromo-4-((1-(methylsulfonyl)indolin-7-yl)amino)pyrimidin-2-yl)amino)-5-methoxy-2-methylphenyl)piperidin-4-yl)piperazin-1-yl)propyl)azetidin-1-yl)-2-(2,6-dioxopiperidin-3-yl)isoindoline-1,3-done], the 50% degradation concentration (DC50) on EGFR [1] came out at 10.9 nM; at EGFR [2] it was 4.6 nM.

On to `CN(CCC1CCN(c2ccc(C3CCC(=O)NC3=O)c(F)c2)CC1)C1CCN(c2ccc(Nc3ncc(Cl)c(Nc4cccc5c4N(S(C)(=O)=O)CC5)n3)c3c2CCO3)CC1` (stereo not drawn) [Example 46, 3-(4-(4-(2-((1-(7-((5-chloro-4-((1-(methylsulfonyl)indolin-7-yl)amino)pyrimidin-2-yl)amino)-2,3-dihydrobenzofuran-4-yl)piperidin-4-yl)(methyl)amino)ethyl)piperidin-1-yl)-2-fluorophenyl)piperidine-2,6-dione], for which the half-maximal degradation concentration (DC50) at EGFR [1] worked out at 23.2 nM; on EGFR [2], 32.2 nM.

On to `CN(CCC1CCN(c2ccc3c(c2)C(=O)N(C2CCC(=O)NC2=O)C3=O)CC1)C1CCN(c2ccc(Nc3ncc(Cl)c(Nc4cccc5c4N(S(C)(=O)=O)CC5)n3)c3c2CCO3)CC1` (stereo not drawn) [Example 47, 5-(4-(2-((1-(7-((5-chloro-4-((1-(methylsulfonyl)indolin-7-yl)amino)pyrimidin-2-yl)amino)-2,3-dihydrobenzofuran-4-yl)piperidin-4-yl)(methyl)amino)ethyl)piperidin-1-yl)-2-(2,6-dioxopiperidin-3-yl)isoindoline-1,3-dione], for which the figures for the DC50 at EGFR [1] and on EGFR [2] were 21.4 nM and 13.8 nM, respectively.

Turning to `CN(CCc1ccc(C2CCC(=O)NC2=O)c(F)c1)C1CCN(c2ccc(Nc3ncc(Cl)c(Nc4cccc5c4N(S(C)(=O)=O)CC5)n3)c3c2CCO3)CC1` (stereo not drawn) [Example 48, 3-(4-(2-((1-(7-((5-chloro-4-((1-(methylsulfonyl)indolin-7-yl)amino)pyrimidin-2-yl)amino)-2,3-dihydrobenzofuran-4-yl)piperidin-4-yl)(methyl)amino)ethyl)-2-fluorophenyl)piperidine-2,6-dione], the DC50 at EGFR [1] is > 10000 nM; at EGFR [2] it was 51.8 nM.

For `CN(CCC1CCN(c2ccc(C3CCC(=O)NC3=O)cc2)CC1)C1CCN(c2ccc(Nc3ncc(Cl)c(Nc4cccc5c4N(S(C)(=O)=O)CC5)n3)c3c2CCO3)CC1` (stereo not drawn) [Example 49, 3-(4-(4-(2-((1-(7-((5-chloro-4-((1-(methylsulfonyl)indolin-7-yl)amino)pyrimidin-2-yl)amino)-2,3-dihydrobenzofuran-4-yl)piperidin-4-yl)(methyl)amino)ethyl)piperidin-1-yl)phenyl)piperidine-2,6-dione], the DC50 was > 10000 nM at EGFR [1] and 138 nM at EGFR [2].

`CN(CCCC1CN(c2ccc3c(c2)C(=O)N(C2CCC(=O)NC2=O)C3=O)C1)C1CCN(c2ccc(Nc3ncc(Cl)c(Nc4cccc5c4N(S(C)(=O)=O)CC5)n3)c3c2CCO3)CC1` (stereo not drawn) [Example 50, 5-(3-(3-((1-(7-((5-chloro-4-((1-(methylsulfonyl)indolin-7-yl)amino)pyrimidin-2-yl)amino)-2,3-dihydrobenzofuran-4-yl)piperidin-4-yl)(methyl)amino)propyl)azetidin-1-yl)-2-(2,6-dioxopiperidin-3-yl)isoindoline-1,3-dione]: the DC50 stood at 7.5 nM on EGFR [1] and 36.9 nM at EGFR [2].

With `CS(=O)(=O)N1CCc2cccc(Nc3nc(Nc4ccc(N5CCC(N6CCN(CCC7CCN(c8ccc(C9CCC(=O)NC9=O)c(F)c8)CC7)CC6)CC5)c5c4OCC5)ncc3Cl)c21` (stereo not drawn) [Example 51, 3-(4-(4-(2-(4-(1-(7-((5-chloro-4-((1-(methylsulfonyl)indolin-7-yl)amino)pyrimidin-2-yl)amino)-2,3-dihydrobenzofuran-4-yl)piperidin-4-yl)piperazin-1-yl)ethyl)piperidin-1-yl)-2-fluorophenyl)piperidine-2,6-dione], the DC50 turned out to be 19.5 nM on EGFR [1] and 12.4 nM at EGFR [2].

For the molecule `CS(=O)(=O)N1CCc2cccc(Nc3nc(Nc4ccc(N5CCC(N6CCN(CCC7CCN(c8ccc9c(c8)C(=O)N(C8CCC(=O)NC8=O)C9=O)CC7)CC6)CC5)c5c4OCC5)ncc3Cl)c21` (stereo not drawn) [Example 52, 5-(4-(2-(4-(1-(7-((5-chloro-4-((1-(methylsulfonyl)indolin-7-yl)amino)pyrimidin-2-yl)amino)-2,3-dihydrobenzofuran-4-yl)piperidin-4-yl)piperazin-1-yl)ethyl)piperidin-1-yl)-2-(2,6-dioxopiperidin-3-yl)isoindoline-1,3-dione], the half-maximal degradation concentration (DC50) at EGFR [1] stood at 7 nM; at EGFR [2], 3.5 nM.

As for `CS(=O)(=O)N1CCc2cccc(Nc3nc(Nc4ccc(N5CCC(N6CCN(CCCC7CN(c8ccc9c(c8)C(=O)N(C8CCC(=O)NC8=O)C9=O)C7)CC6)CC5)c5c4OCC5)ncc3Cl)c21` (stereo not drawn) [Example 55, 5-(3-(3-(4-(1-(7-((5-chloro-4-((1-(methylsulfonyl)indolin-7-yl)amino)pyrimidin-2-yl)amino)-2,3-dihydrobenzofuran-4-yl)piperidin-4-yl)piperazin-1-yl)propyl)azetidin-1-yl)-2-(2,6-dioxopiperidin-3-yl)isoindoline-1,3-dione], the half-maximal degradation concentration (DC50) at EGFR [1] was found to be 9.6 nM; at EGFR [2], 11.9 nM.
